Tests used:
Test in all cases: relative viability (nuclei count vs DMSO), 5 days (fraction); higher = more cells survive
XMD14-99 + Pictilisib = compound: CN1CCN(CC1)C2=CC(=C(C=C2)NC3=NC(=C(S3)C(=O)C4=C(C=CC=C4Cl)Cl)N)OC [XMD14-99] + CS(=O)(=O)N1CCN(Cc2cc3nc(-c4cccc5[nH]ncc45)nc(N4CCOCC4)c3s2)CC1 [Pictilisib] (partner 1 µM)
Outline: (§1)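 Lung cancer cell lines were seeded in 1536-well plates and dosed by pin tool the next day, with either a single drug or a fixed anchor-drug dose combined with five library-drug doses (not always all listed) spaced in √10 steps. Five days later, one step fixed the cells and stained their nuclei (final 0.05% Triton X-100, 1% formaldehyde, 1 ug/ml Hoechst), and nuclei were counted on 4× images. Relative viability is the nuclei count in treated wells divided by the count in vehicle wells, and each value is the median of duplicate plates.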

AZD1208 + Foretinib = compound: N[C@@H]1CCCN(c2c(/C=C3\SC(=O)NC3=O)cccc2-c2ccccc2)C1 [AZD1208] + COc1cc2c(Oc3ccc(NC(=O)C4(C(=O)Nc5ccc(F)cc5)CC4)cc3F)ccnc2cc1OCCCN1CCOCC1 [Foretinib] (partner 0.25 µM)
Outline: as §1

AZD1208 + Phenformin = compound: N[C@@H]1CCCN(c2c(/C=C3\SC(=O)NC3=O)cccc2-c2ccccc2)C1 [AZD1208] + N=C(N)NC(=N)NCCc1ccccc1 [Phenformin] (partner 250 µM)
Outline: as §1

AZD1208 + Pemetrexed = compound: N[C@@H]1CCCN(c2c(/C=C3\SC(=O)NC3=O)cccc2-c2ccccc2)C1 [AZD1208] + Nc1nc2[nH]cc(CCc3ccc(C(=O)N[C@@H](CCC(=O)O)C(=O)O)cc3)c2c(=O)[nH]1 [Pemetrexed] (partner 0.2 µM)
Outline: as §1

## UMC-11
XMD14-99 + Pictilisib; first compound 0.08 µM
  relative viability: 0.802
XMD14-99 + Pictilisib; first compound 0.8 µM
  relative viability: 0.856
XMD14-99 + Pictilisib; first compound 2.53 µM
  relative viability: 0.795
XMD14-99 + Pictilisib; first compound 8 µM
  relative viability: 0.663
AZD1208 + Foretinib; first compound 0.08 µM
  relative viability: 0.884
AZD1208 + Foretinib; first compound 0.253 µM
  relative viability: 0.877
AZD1208 + Foretinib; first compound 0.8 µM
  relative viability: 0.77
AZD1208 + Foretinib; first compound 2.53 µM
  relative viability: 0.741
AZD1208 + Foretinib; first compound 8 µM
  relative viability: 0.458
AZD1208 + Phenformin; first compound 0.08 µM
  relative viability: 0.312
AZD1208 + Phenformin; first compound 0.253 µM
  relative viability: 0.355
AZD1208 + Phenformin; first compound 0.8 µM
  relative viability: 0.339
AZD1208 + Phenformin; first compound 2.53 µM
  relative viability: 0.388
AZD1208 + Phenformin; first compound 8 µM
  relative viability: 0.306
AZD1208 + Pemetrexed; first compound 0.08 µM
  relative viability: 0.689
AZD1208 + Pemetrexed; first compound 0.253 µM
  relative viability: 0.718
AZD1208 + Pemetrexed; first compound 0.8 µM
  relative viability: 0.631
AZD1208 + Pemetrexed; first compound 2.53 µM
  relative viability: 0.594
AZD1208 + Pemetrexed; first compound 8 µM
  relative viability: 0.48

— the supplement of paper PMC10307832
